Measurements published in patent US20120183614A1, “POLYPHENOL COMPOUND ABSORPTION PROMOTER AND UTILIZATION OF SAME” (priority 2009, published 2012).

Key:
[1] = EGCG in rat plasma after oral administration of green tea extract solution with serine and malic acid (Test Example 4); assay type: in vivo, rats; details: rat plasma after administration solutions (i) to (iv)
Procedure: The final EGCG concentration derived from the green tea extract contained in each administration solution was adjusted to 1 mM. […] During the recuperation period, the rats were fed individually in cages equipped with floor nets and allowed to ingest CE-2 feed (manufactured by CLEA Japan, Inc.) freely. […] The EGCG concentration in plasma was measured as follows: […] Isocratic elution was performed at a sample injection volume to the column of 20 μL using 0.1% phosphoric acid containing 0.1 mM EDTA·2Na:acetonitrile=90:10 as the mobile phase at a flow rate of 0.4 mL/min. […] The retention time of the EGCG standard substance was 8.0 minutes, and the detection sensitivity was 2 nM. The EGCG concentrations in actual administration solutions were also analyzed again, and it was confirmed that EGCG was administered to the rats in scheduled amounts. Rat plasma collected after administration of each of the administration solutions (i), (ii), (iii), and (iv) was treated and subjected to HPLC analysis as mentioned above. […] In other words, it was considered that most of EGCG in blood was absorbed in blood as an unconjugated free body.

[2] = tested on: Caco-2 cells; test: In vitro EGCG absorption measurement system, Caco-2 cell monolayer on Transwell (Papp of EGCG, chorionic to serosal side)
Procedure: An orally-ingested polyphenol compound, in particular, catechin compound is considered to be absorbed mainly in the intestinal tract, especially the small intestine in the body. […]
The Caco-2 cells were cultured in the presence of humidified air containing 5% CO2 in a Dulbecco's modified Eagle medium (DMEM, pH 7.4; manufactured by GIBCO) containing 10% inactivated fetal bovine serum (manufactured by HyClone), 50 U/mL penicillin-50 μg/mL streptomycin (manufactured by GIBCO), and a 1% non-essential amino acid (manufactured by GIBCO) in a plastic flask of 75 cm^2. The cells were maintained by performing subculture every 5 to 8 days when the cells reached 80 to 90% confluence. An EGCG absorption experiment to be described below was performed using Caco-2 cells which had been subcultured 30 to 70 times.
The EGCG absorption experiment was performed using a Caco-2 cell monolayer cultured on a Transwell with a diameter of 12 mm (polycarbonate filter culture area: 1.13 cm^2, pore size: 0.4 μm; manufactured by Corning). […] Transepithelial electrical resistance (hereinafter, referred to as “TEER”) was measured using a Millicell ERS meter (manufactured by Millipore) to monitor the degree of completion of a tight junction of the cell monolayer, and a monolayer which had been confirmed that formation of the tight junction had been completed was used in the experiment. […]

[3] = EGCG absorbability in rats, Camellia sinensis (L.) O. Kuntze extracts versus green tea extracts (Test Example 7); assay type: in vivo; details: rat plasma
Source text: For Camellia sinensis (L.) O. Kuntze extracts (Camellia sinensis (L.) O. Kuntze tea hot water extract manufactured by ASAHI SOFT DRINKS CO., Ltd.; lot 1 [i], lot 2 [ii], and lot 3 [iii]) and green tea extracts (green tea hot water extract manufactured by San-Ei Gen F.F.I., Inc.; lot 4 [iv] and lot 5 [v]), absorbability of EGCG by rats were compared. […] During the recuperation period, the rats were fed individually in cages equipped with floor nets and allowed to ingest CE-2 feed (manufactured by CLEA Japan, Inc.) freely. The numbers of samples of the administration solutions are as follows: [i] Camellia sinensis (L.) O. Kuntze extract lot 1-administered group: n=7; [ii] Camellia sinensis (L.) O. Kuntze extract lot 2-administered group: n=7; [iii] Camellia sinensis (L.) O. Kuntze extract lot 3-administered group: n=6; [iv] green tea extract lot 4-administered group:n=5; and [v] green tea extract lot 5-administered group: n=4. […] The EGCG concentration in plasma was measured in the same manner as in Test Example 4. […] Isocratic elution was performed at a sample injection volume to the column of 20 μL using 0.1% phosphoric acid containing 0.1 mM EDTA·2Na:acetonitrile=90:10 as the mobile phase at a flow rate of 0.4 mL/min. […] The EGCG concentrations in actual administration solutions were also analyzed again, and it was confirmed that EGCG was administered to the rats in scheduled amounts. […]

[4] = Stability of EGCG in the chorionic side HBSS solution; assay type: physicochemical; details: chorionic side HBSS solution with 1 mM ascorbic acid, pH 5.5
Procedure: In addition, the EGCG absorption capacity of the Caco-2 cells was maintained constantly for 4 hours or more by adding 10 mM glutamine to the HBSS solutions of the chorionic side and serosal side in the measurement system.

[5] = EGCG absorbability in rats, mixed administration solutions (Test Example 8); assay type: in vivo; details: oral, 1 mM EGCG, Fisher's PLSD
Source text: The reason why the significant differences are found in EGCG absorbability between the Camellia sinensis (L.) O. Kuntze extracts and the usual green tea extracts although both are extracts obtained by the same hot-water extraction procedures is probably that substances contained in the extracts differ from each other. That is, the green tea extracts may contain an ingredient which inhibits EGCG absorption, or the Camellia sinensis (L.) O. Kuntze extracts may contain an ingredient which promotes EGCG absorption. In order to gain the chance of investigation of the possibility, an experiment shown in this test example was performed. Specifically, a Camellia sinensis (L.) O. Kuntze extract solution, a usual green tea extract solution, and an EGCG reagent solution were prepared so as to have the same EGCG concentration, and solutions obtained by mixing the solutions in appropriate combination were administered to rats to investigate changes in EGCG absorbability. […] In the same manner as in Test Example 7, the administration solutions were orally administered forcibly to rats mounted with a cannula in the vein, and EGCG concentrations in plasma obtained by blood collection performed with time after administration were measured and converted into areas under curve to compare amounts of EGCG remaining in blood. […]

[6] = tested on: Caco-2 cell monolayer; test: Transepithelial electrical resistance (TEER) of the Caco-2 cell monolayer; assay type: cell-based, human; details: EGCG reagent added at different concentrations to the chorionic side, 3-hour measurement period
Procedure: The EGCG absorption experiment was performed using a Caco-2 cell monolayer cultured on a Transwell with a diameter of 12 mm (polycarbonate filter culture area: 1.13 cm^2, pore size: 0.4 μm; manufactured by Corning). The Caco-2 cells were inoculated onto an insert of the Transwell at a density of 1.0×10^5 cells/cm^2, and culture was continued while the medium was exchanged for a fresh one every 2 days. Transepithelial electrical resistance (hereinafter, referred to as “TEER”) was measured using a Millicell ERS meter (manufactured by Millipore) to monitor the degree of completion of a tight junction of the cell monolayer, and a monolayer which had been confirmed that formation of the tight junction had been completed was used in the experiment. […]
The medium of the upper part of the Transwell insert on which the Caco-2 cell monolayer was placed (chorionic side) was replaced by a Hanks' Balanced Salt Solution-like Transport Medium having a pH of 5.5 (chorionic side HBSS solution; containing 10 mM MES, 5 mM glucose, 10 mM glutamine, and 1 mM ascorbic acid), and the medium of the lower part of the insert (serosal side) was replaced by HBSS having a pH of 7.4 (serosal side HBSS solution; containing […], 5 mM glucose, 10 mM glutamine, and 1 mM ascorbic acid). […] The cells were incubated for 30 minutes, and TEER was measured again. […]

[7] = Catechin compounds in human plasma after Camellia sinensis (L.) O. Kuntze extract with sodium malate (Test Example 9); assay type: in vivo; details: humans, 135 mg with Camellia sinensis (L.) O. Kuntze extract (195 mg catechin compounds), oral; total of five catechin compounds
Procedure: The effect of malic acid on absorption of a catechin compound in humans was examined. Five healthy men and women which were 20 years old or more and less than 65 years old were selected as test subjects, and a test was performed on the effect of increasing the amount of the catechin compound remaining in blood by ingesting sodium malate simultaneously with the Camellia sinensis (L.) O. Kuntze extract. […]
The test was performed by a crossover test as described below. […] In the same manner as in Test Example 4, concentrations of the catechin compounds in plasma were measured by the HPLC-ECD method (electrochemical detection method). […] As the second phase, concentrations of the catechin compounds in plasma were measured under the same conditions as those in the first phase except that each subject ingested the control substance. It should be noted that the concentrations of the catechin compounds were determined as a total concentration of five kinds of catechin compounds including EGCG, 3″-O-methylepigallocatechin gallate, epigallocatechin, epicatechin gallate, and epicatechin.

SMILES | Change in EGCG concentration in plasma before and after deconjugation treatments with β-glucuronidase and sulfatase [1] | EGCG absorbed in the form of a conjugate (deconjugation treatment of EGCG permeated to the serosal side) [2] | Change in EGCG concentrations in plasma before and after the deconjugation treatment with β-glucuronidase and sulfatase [3] | Stability of EGCG during the absorption experiment period [4] | Difference in mean values, EGCG concentrations in plasma × time (areas under curve) ([5]; labelled solution vs [ii] EGCG reagent + green tea extract) | Difference in mean values, EGCG concentrations in plasma × time (areas under curve) ([5]; labelled solution vs [iii] Camellia sinensis (L.) O. Kuntze extract + green tea extract) | TEER during the measurement period [6] | AUC0→4h of total catechins in plasma relative to ingestion of no sodium malate [7]
O=C(O[C@@H]1Cc2c(O)cc(O)cc2O[C@@H]1c1cc(O)c(O)c(O)c1)c1cc(O)c(O)c(O)c1 [EGCG, epigallocatechin gallate] | no changes | no EGCG absorbed in the form of a conjugate | not changed | maintained completely and stably | 0.0052 | 0.0009 | maintained well | 
O=C([O-])CC(O)C(=O)[O-].[Na+].[Na+] (centres unmarked) [sodium malate] |  |  |  |  |  |  |  | 1.6 times
